Measured values as given in publication PMC3458735, “Design of a novel tryptophan-rich membrane-active antimicrobial peptide from the membrane-proximal region of the HIV glycoprotein, gp41” (Beilstein Journal of Organic Chemistry, 2012).
Where no end group is shown, it is not given here.

Columns and labels:
[1] = test system: S. aureus; conditions: for MBC S. aureus: minimum bactericidal concentration; for MIC S. aureus: minimum inhibitory concentration
Protocol: (§1) The antimicrobial activity for gp41w and its derivatives was determined against Gram-negative E. coli and Gram-positive S. aureus strains (Table 1).
(§2) Minimum inhibitory concentrations (MIC) and minimum bactericidal concentrations (MBC) were determined for E. coli and S. aureus as described previously. Hemolytic activity was also determined by using red blood cells from healthy volunteers, as described previously.

[2] = test system: E. coli; conditions: for MBC E. coli: minimum bactericidal concentration; for MIC E. coli: minimum inhibitory concentration
Protocol: as §1, §2

[3] = Calcein leakage from LUVs; conditions: 37 °C, triplicate; for calcein leakage from zwitterionic ePC:ePE LUVs: highest peptide:lipid ratio tested; for calcein leakage from zwitterionic ePC:ePE LUVs (in words): melittin as positive control
Protocol: All four peptides were tested for their ability to induce the release of the self-quenching fluorescent dye, calcein, from calcein-encapsulated LUVs.
Melittin (black), a known lytic peptide from honey-bee venom was used as a positive control. All experiments were carried out in triplicate at 37 °C.
Calcein leakage was performed according to established protocols. Melittin, the principal component of bee venom and a known lytic peptide, was used as a positive control. Calcein leakage was measured for LUVs made from lipid mixtures of ePC:ePG, ePE:ePG or ePC:ePE.

[4] = test system: E. coli and S. aureus; experiment: Antimicrobial activity, covering both strains; assay type: cell-based; conditions: for antimicrobial activity (in words): at the concentrations tested
Protocol: as §1, §2

[5] = test system: red blood cells from healthy volunteers; experiment: Hemolytic activity on red blood cells; assay type: cell-based, human; conditions: for hemolytic concentration: peptide concentration at which red blood cells were lysed
Protocol: as §2

[6] = Acrylamide quenching of Trp fluorescence (Stern-Volmer constant); assay type: physicochemical; set-up: unit not given here; conditions: acrylamide titration (aliquots of 4 M acrylamide), 25 °C, three separate trials
Protocol: Acrylamide quenching experiments were performed for the four peptides to examine the accessibility of the Trp fluorophores in the various membrane environments. If a Trp side chain inserts into the hydrophobic core of the bilayer, it becomes less accessible to the effects of the soluble acrylamide quencher. The quenching of Trp fluorescence is directly related to the concentration of quencher, so a titration with the neutral acrylamide allows for the calculation of the Stern–Volmer constant (Ksv), which quantitatively measures the accessibility of the Trp residues in various lipid environments.
Intrinsic tryptophan fluorescence of the peptides was measured on a Cary Eclipse Fluorimeter (Agilent Technologies, Victoria, Australia) equipped with a temperature control unit set at 25 °C. Emission spectra were recorded between 300 and 400 nm with an excitation wavelength of 295 nm. Excitation and emission slits were kept at 5 and 10 nm, respectively, for all the peptides except for gp41w-FKA, which has a single Trp residue, and for which both slit widths were maintained at 10 nm. The concentration of SDS and DPC in the fluorescence samples was 25 mM, while the lipid concentration in the LUV samples was 30 μM. Acrylamide titrations were performed to determine Ksv by adding five aliquots of a 4 M acrylamide solution to the sample and recording an emission spectra using the parameters described above. Ksv was calculated by using the formula F0/F = […], Where F0 is the initial fluorescence and F is the fluorescence intensity after the addition of soluble quencher (Q).

[7] = earlier attempts at an NMR structure; cited from earlier work
Source text: The lack of antimicrobial activity may be related to the fact that the gp41w peptide appears to oligomerize in solution. […] In terms of the antimicrobial activity, gp41w oligomers may be too large to pass through the peptidoglycan layer surrounding Gram-positive bacteria. Additionally, they would have to disassociate into monomers before the ...

[8] = 4:4:1 CDCl3:methanol-d3:H2O, 1–2 mg in 500 μL; aggregates persisted at higher temperatures
Protocol: Consequently, we chose to use a cosolvent mixture consisting of four parts deuterated chloroform, four parts deuterated methanol and one part water [19–20].
NMR samples were prepared by dissolving 1–2 mg of lyophilized peptide powder in 500 μL of the miscible cosolvent solution, and then the samples were flame sealed in an NMR tube to avoid evaporation of the organic solvents. Two-dimensional NOESY, TOCSY and COSY spectra were collected at 298 K on a Bruker Avance 700 MHz spectrometer. Mixing times in the NOESY and TOCSY experiments were 100 ms and 120 ms, respectively. Spectra were acquired with 4096 × 600 data points in the F1 and F2 dimensions at a spectral width of 8992.806 Hz. Water suppression was achieved by using excitation sculpting [44].

[9] = Tryptophan emission fluorescence in aqueous buffer; assay type: physicochemical; conditions: 25 °C, excitation 295 nm, a blue-shifted maximum is read as oligomerization in solution
Protocol: Tryptophan emission fluorescence of all the gp41w derivatives was performed to examine the microenvironment surrounding the Trp side chains. It is evident that the behaviour of the gp41w peptide is very different from the other peptides. The wavelength of the maximum emission for gp41w occurs at 342 nm, while the other three peptides have maximum emission wavelengths at ~356 nm. The value of 356 nm is normal for an exposed Trp side chain in aqueous solution. […] A shift towards lower wavelengths is usually interpreted as the Trp residue residing in a more hydrophobic environment, which may be due to the gp41w peptides oligomerizing in solution.
Intrinsic tryptophan fluorescence of the peptides was measured on a Cary Eclipse Fluorimeter (Agilent Technologies, Victoria, Australia) equipped with a temperature control unit set at 25 °C. Emission spectra were recorded between 300 and 400 nm with an excitation wavelength of 295 nm. […] The concentration of SDS and DPC in the fluorescence samples was 25 mM, while the lipid concentration in the LUV samples was 30 μM. […] Ksv was calculated by using the formula F0/F = […], Where F0 is the initial fluorescence and F is the fluorescence intensity after the addition of soluble quencher (Q).

[10] = most potent peptide of Lee et al.; cited from earlier work
Source text: Other de novo strategies for generating AMPs have been reported in the literature. For instance, Lee et al. recently published a study wherein they synthesized short peptides (5-11 residues) composed of only three amino acids: Lys, Leu and Trp. Their results support the notion that the antimicrobial activity of a peptide is related to peptide amphipathicity and helicity as well as to the location of the Trp residues.

Substance	MBC S. aureus [1]	MIC S. aureus [1]	MBC E. coli [2]	MIC E. coli [2]	calcein leakage from zwitterionic ePC:ePE LUVs [3]	antimicrobial activity (in words) ([4]; E. coli and S. aureus)	concentrations of bacteriostatic and bactericidal effects ([4]; range over MIC and MBC of both strains)	hemolytic concentration [5]	Ksv (Stern-Volmer constant) in buffer [6]	calcein leakage from zwitterionic ePC:ePE LUVs (in words) [3]	Hemolysis EC50 ([5]; effective concentration for 50% hemolysis, red blood cells from healthy volunteers)	behaviour in aqueous solution or 40% TFE (in words) [7]	solubility in the cosolvent mixture (in words) [8]	concentration below which no antimicrobial activity was observed ([4]; E. coli and S. aureus)	concentration below which hemolysis was not observed [5]	hemolysis (in words) ([5]; peptide added to red blood cells)	wavelength of the maximum Trp emission in aqueous buffer [9]	hemolytic activity (in words) [10]
KFAKKFKWFAKAAFKFFKK-NH2 [gp41w-FKA]	20 to 30 µg/mL	<10 µg/mL	40 to 50 µg/mL	10 to 30 µg/mL	~ 70%	significant antimicrobial activity	10 to 50 µg/mL	195 µg/mL	17.9	–	–	–	–	–	–	–	–	–
KWAKKWKWFAKAAWKWYKK-NH2 [gp41w-KA]	>100 µg/mL	>100 µg/mL	>100 µg/mL	>100 µg/mL	~ 70%	inactive	–	42 µg/mL	16.4	–	–	–	–	–	–	–	–	–
KWARLWRWFRITRWLWYIK-NH2 [gp41w-4R]	>100 µg/mL	>100 µg/mL	>100 µg/mL	>100 µg/mL	–	inactive	–	7 µg/mL	27.8	significant leakage	7 to 14 µg/mL	–	–	–	–	–	–	–
KWASLWNWFNITNWLWYIK-NH2 [gp41w]	>100 µg/mL	>100 µg/mL	>100 µg/mL	>100 µg/mL	–	inactive	–	–	10.3	caused leakage, but not to the same extent	–	peptide aggregation or poor solubility	did not readily dissolve	≥ 100 µg/mL	≥ 500 µg/mL	minimal hemolysis	342 nm	–
LKWLLKWLL-NH2	–	–	–	–	–	–	–	–	–	–	–	–	–	–	–	–	–	significant hemolytic activity
